# pIC50: −log10 of the molar value. Entries after “also recorded” stand apart in the source; their conditions may differ. Read-outs that look alike come from different tables or passages of the source.
# What was measured:
# [1] = target: T1, human group IIA (hG-IIA) sPLA2 (Homo sapiens, UniProt P14555); assay: In vitro antiphospholipase activity; type: biochemical
# T1 sequence (P14555 21-144): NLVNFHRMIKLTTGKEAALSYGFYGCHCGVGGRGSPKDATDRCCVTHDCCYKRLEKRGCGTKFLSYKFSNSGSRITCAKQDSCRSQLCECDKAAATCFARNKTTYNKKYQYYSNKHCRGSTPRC
# [2] = target: T2, human group V (hG-V) sPLA2 (Homo sapiens, UniProt P39877); assay: In vitro antiphospholipase activity; type: biochemical
# T2 sequence (P39877 21-138): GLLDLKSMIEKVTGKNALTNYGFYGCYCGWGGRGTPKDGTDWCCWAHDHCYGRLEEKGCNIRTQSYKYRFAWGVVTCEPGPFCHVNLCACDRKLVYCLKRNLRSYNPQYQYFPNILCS
# [3] = target: T3, human group X (hG-X) sPLA2 (Homo sapiens, UniProt O15496); assay: In vitro antiphospholipase activity; type: biochemical
# T3 sequence (O15496 43-165): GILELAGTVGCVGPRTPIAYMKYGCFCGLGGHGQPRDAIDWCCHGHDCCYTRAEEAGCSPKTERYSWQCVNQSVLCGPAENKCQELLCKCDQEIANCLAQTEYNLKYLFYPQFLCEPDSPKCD
# [4] = target: Naja mossambica mossambica sPLA2 (NmPLA2); assay: In vitro antiphospholipase activity; type: biochemical; details: 20 min preincubation, lecithin substrate, pH 7.6
# [5] = target: Apis mellifera bee venom (AmPLA2) (Apis mellifera, UniProt P00630); assay: biochemical
# Sequence of Apis mellifera bee venom (AmPLA2) (P00630 34-167 limits assumed): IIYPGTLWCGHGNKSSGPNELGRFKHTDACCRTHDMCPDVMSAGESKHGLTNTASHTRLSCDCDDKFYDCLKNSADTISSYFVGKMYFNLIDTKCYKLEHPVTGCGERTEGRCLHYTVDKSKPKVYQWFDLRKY
# [6] = target: cathepsin-B (Homo sapiens, UniProt P07858); assay: In vitro antiprotease activity; type: biochemical
# Method: (§1) The inhibitory effects of 21 3H-quinazolin-4-one derivatives on several available therapeutically important proteases such as cathepsin-B, collagenase, elastase, thrombin, and trypsin were investigated. […] The protease inhibitory activity was expressed as inhibition percentage, which was determined by comparison with a control experiment. The results were expressed as IC50 values that were determined from the standard curve. A protease inhibitor cocktail (Sigma) was used as the positive control.
# [7] = target: collagenase; assay: In vitro antiprotease activity; type: biochemical; details: 15 min preincubation
# Method: as §1
# [8] = target: elastase; assay: In vitro antiprotease activity; type: biochemical; details: 15 min preincubation
# Method: as §1
# [9] = target: thrombin (Homo sapiens, UniProt P00734); assay: In vitro antiprotease activity; type: biochemical
# Method: as §1
# [10] = target: T4, trypsin (Bos taurus, UniProt P00760); assay: In vitro antiprotease activity; type: biochemical
# T4 construct: gene PRSS1
# T4 sequence (P00760 24-246): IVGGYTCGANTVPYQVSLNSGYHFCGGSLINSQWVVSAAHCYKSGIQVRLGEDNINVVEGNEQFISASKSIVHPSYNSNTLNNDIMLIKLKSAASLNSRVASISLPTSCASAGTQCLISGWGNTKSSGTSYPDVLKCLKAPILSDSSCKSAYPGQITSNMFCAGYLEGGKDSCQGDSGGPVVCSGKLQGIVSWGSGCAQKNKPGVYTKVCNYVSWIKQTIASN
# Method: as §1
# [11] = target: T5, α-glucosidase (Saccharomyces cerevisiae, UniProt P53341); assay: In vitro inhibition of α-glucosidase activity; type: biochemical
# T5 construct: purchased Sigma
# T5 sequence (P53341 whole entry): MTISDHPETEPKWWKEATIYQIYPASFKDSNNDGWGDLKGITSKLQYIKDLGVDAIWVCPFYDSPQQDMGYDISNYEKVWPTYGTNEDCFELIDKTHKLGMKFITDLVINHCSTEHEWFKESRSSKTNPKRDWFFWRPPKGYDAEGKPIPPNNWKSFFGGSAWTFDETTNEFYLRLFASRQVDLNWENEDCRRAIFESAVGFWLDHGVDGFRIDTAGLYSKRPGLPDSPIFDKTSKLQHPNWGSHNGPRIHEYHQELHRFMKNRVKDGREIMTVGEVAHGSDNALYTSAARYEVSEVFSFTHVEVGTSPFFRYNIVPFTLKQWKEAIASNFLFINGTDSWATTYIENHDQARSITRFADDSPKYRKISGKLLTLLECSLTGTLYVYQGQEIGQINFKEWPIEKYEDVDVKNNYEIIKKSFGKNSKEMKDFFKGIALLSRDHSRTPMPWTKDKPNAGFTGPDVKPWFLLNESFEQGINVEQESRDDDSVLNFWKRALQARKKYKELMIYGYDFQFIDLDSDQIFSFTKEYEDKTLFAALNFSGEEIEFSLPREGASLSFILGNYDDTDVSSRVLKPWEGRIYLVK
# Method: The colorimetric assay included 2 U of α-glucosidase, 5 mM of 4-NPGP, and 10 mM potassium phosphate buffer, pH 6.9. […] The reading assay was performed using a microplate reader at 405 nm. […] The results were expressed as IC50 determined from the curve.
# [12] = target: xanthine oxidase (Homo sapiens, UniProt P47989); assay: In vitro inhibition of xanthine oxidase; type: biochemical
# Sequence of xanthine oxidase (P47989 whole entry, species assumed): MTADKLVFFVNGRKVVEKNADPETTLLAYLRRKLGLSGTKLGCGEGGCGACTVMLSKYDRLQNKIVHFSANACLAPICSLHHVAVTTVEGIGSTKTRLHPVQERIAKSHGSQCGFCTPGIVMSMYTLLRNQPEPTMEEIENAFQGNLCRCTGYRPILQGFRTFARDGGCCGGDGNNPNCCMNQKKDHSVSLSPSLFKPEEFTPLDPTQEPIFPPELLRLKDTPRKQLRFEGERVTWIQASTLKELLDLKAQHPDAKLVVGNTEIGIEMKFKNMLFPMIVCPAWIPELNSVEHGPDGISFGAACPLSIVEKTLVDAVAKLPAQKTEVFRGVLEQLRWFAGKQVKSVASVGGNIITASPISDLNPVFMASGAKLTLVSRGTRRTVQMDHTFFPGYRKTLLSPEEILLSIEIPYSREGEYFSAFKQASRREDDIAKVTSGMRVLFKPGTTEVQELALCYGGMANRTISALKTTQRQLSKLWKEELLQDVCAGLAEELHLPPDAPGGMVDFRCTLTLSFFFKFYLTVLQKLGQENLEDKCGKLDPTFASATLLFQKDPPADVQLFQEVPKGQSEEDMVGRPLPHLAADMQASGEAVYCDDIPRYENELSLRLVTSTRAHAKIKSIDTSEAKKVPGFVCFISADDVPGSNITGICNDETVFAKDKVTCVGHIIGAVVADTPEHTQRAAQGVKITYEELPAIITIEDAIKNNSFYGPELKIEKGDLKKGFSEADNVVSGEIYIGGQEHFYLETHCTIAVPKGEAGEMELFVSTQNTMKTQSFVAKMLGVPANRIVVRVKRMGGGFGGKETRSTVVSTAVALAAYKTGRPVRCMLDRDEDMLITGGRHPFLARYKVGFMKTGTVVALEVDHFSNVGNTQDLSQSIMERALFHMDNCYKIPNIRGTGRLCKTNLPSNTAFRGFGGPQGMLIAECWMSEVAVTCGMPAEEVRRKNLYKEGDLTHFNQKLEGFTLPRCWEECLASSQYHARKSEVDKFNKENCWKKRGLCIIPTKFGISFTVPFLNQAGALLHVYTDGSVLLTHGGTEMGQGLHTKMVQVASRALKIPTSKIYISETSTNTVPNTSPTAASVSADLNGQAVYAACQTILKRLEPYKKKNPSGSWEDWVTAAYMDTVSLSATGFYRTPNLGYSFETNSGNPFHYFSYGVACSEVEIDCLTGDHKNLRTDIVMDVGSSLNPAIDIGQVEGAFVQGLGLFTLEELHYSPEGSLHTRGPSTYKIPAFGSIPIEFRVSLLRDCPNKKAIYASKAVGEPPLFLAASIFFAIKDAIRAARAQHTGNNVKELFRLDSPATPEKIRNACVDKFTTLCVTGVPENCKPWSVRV
# Method: The xanthine oxidase inhibitory activities of the examined chemical compounds were determined by following the formation of uric acid from xanthine according to the reported method by Bondet and co-workers[46]. […] The results were expressed as IC50 determined from the curve.
# [13] = system: HT-29 cells; assay: MTT cell viability assay; type: cell-based, Human
# Method: (§2) Human CRC cell lines, HT-29 and SW620 cells were grown in RPMI (Invitrogen) containing 10% heat-inactivated foetal bovine serum, 100 µg/ml streptomycin, 100 units/ml penicillin and 2 mmol/l L-glutamine.
# (§3) Cell viability was determined using the 3-(4, 5-dimethylthiazolyl-2)–2, 5-diphenyltetrazolium bromide) MTT assay according to Mosmann[40]. 5-Fluorouracil (5-FU) was used as positive control. Briefly, after culturing cells in 96 well plates for 24 h, they were treated with different compounds (30 μg/ml) for 24 h. Freshly prepared MTT (5 mM) solutions were added to the cells and were further incubated for 2 h at 37 °C in 5% CO2. One hundred microliters of dimethyl sulphoxide (DMSO) was added in each well to dissolve the formazan crystal, formed in the reaction during incubation by careful pipetting. The absorbance of the product was measured at 540 nm using a microplate reader. The experiments were performed in triplicate for each condition. The graph illustrates the mean and standard deviation (SD) values of three independent experiments.
# [14] = system: SW620 cells; assay: MTT cell viability assay; type: cell-based, Human
# Method: as §2, §3
# [15] = system: HT-29 cells; assay: Cytotoxicity assay using the xCELLigence system; type: cell-based, Human; details: HT-29, 20 and 40 µg/ml, 3 d, xCELLigence RTCA
# Method: (§4) The optimal seeding concentration for proliferation of HT-29 was determined. HT-29 cells (5000 cell in 150 µl medium/well) and SW620 cells (12,000 cell in 150 µl medium/well) were seeded in 16 well plates (E-plate 16-ACEA Biosciences Inc., San Diego, CA) as described in the xCELLigence Real Time Cell Analyzer (RTCA) DP instrument manual provided by the manufacturer. After 24 h, 20 and 40 µg/ml of compound 15d were added and the experiments were allowed to run for another 3 d. Baseline cell indexes were calculated for at least two measurements from three replicate experiments.
# [16] = system: SW620 cells; assay: Cytotoxicity assay using the xCELLigence system; type: cell-based, Human; details: SW620, 20 and 40 µg/ml, 3 d, xCELLigence RTCA
# Method: as §4
# [17] = system: Bcl2; assay: Western blotting of anti-apoptotic protein expression; type: cell-based, Human; details: SW620 cells, various concentrations, 24 h, immunoblot
# Method: (§5) Whole cell lysates were prepared using radioimmunoprecipitation assay (RIPA) lysis buffer as described by Al-Khayal and co-workers[41]. Total protein concentration was determined using Bradford protein reagent (Bio-Rad, Hercules, CA). Soluble proteins were loaded on precast TGX gels and were analysed using immunoblotting with anti-Bcl2, anti-BclxL (dilution 1:1000; Santa Cruz Biotechnology, Dallas, TX), and anti-β-actin (1:10,000 Sigma, St. Louis, MO). Reactivity was detected using horseradish peroxidase-conjugated secondary antibodies and chemiluminescence by Clarity Western ECL substrate (Bio-Rad). Membrane was developed using C-Digit Blot Scanner (LI-COR, Hamburg, Germany).
# (§6) SW620 cells were treated with various concentrations of 15d for 24 h.
# [18] = system: BclxL; assay: as above; type: cell-based, Human; details: SW620 cells, various concentrations, 24 h, immunoblot
# Method: as §5, §6
# [19] = system: HT-29 cells; assay: MTT cell viability assay; type: cell-based; details: Homo sapiens, HT-29, read-out: IC50 (cell viability)
# [20] = system: SW620 cells; assay: MTT cell viability assay; type: cell-based; details: Homo sapiens, SW-620, read-out: IC50 (cell viability)
structure (smiles),measurement,setting,value
"COc1cc(-n2c(C)nc3ccccc3c2=O)cc(OC)c1OC [Compound 5a, 2 -Methyl-3-(3,4,5-trimethoxy-phenyl)-3H-quinazolin-4-one]",pIC50,[1],4.67
same,pIC50,[2],4.53
same,pIC50,[3],4.63
same,mean IC50 against NmPLA2,[4],6.00 ± 0.71 µg/mL
same,pIC50,[5],4.77
same,pIC50,[6],4.60
same,mean IC50 against Collagenase,[7],12.25 ± 1.77 µg/mL
same,mean IC50 against Elastase,[8],23.5 ± 0.71 µg/mL
same,pIC50,[9],4.17
same,pIC50,[10],4.05
same,pIC50,[11],4.19
same,pIC50,[12],4.65
same,melting point,,88 to 90 °C
"Cc1ccc2nc(SCC(=O)Nc3c(C)cccc3C)n(-c3ccccc3)c(=O)c2c1 [Compound 15d, N-(2,6-Dimethyl-phenyl)-2-(6-methyl-4-oxo-3-phenyl-3,4-dihydro-quinazolin-2-ylsulfanyl) -acetamide]",inhibition of cell viability (in words),"[13]; HT-29, 30 μg/ml, MTT",potently capable of inhibiting cell viability
same,viability at 30 µg/mL,"[13]; Homo sapiens, HT-29, 24 h, read-out: cell viability",38%
same,viability at 30 µg/mL,"[14]; Homo sapiens, SW-620, 24 h, read-out: cell viability",36.7%
same,inhibition of cell viability (in words),"[14]; SW620, 30 μg/ml, MTT",potently capable of inhibiting cell viability
same,"cell proliferation, real time (in words)",[15],inhibit the cell proliferation
same,"cell proliferation, real time (in words)",[16],inhibit the cell proliferation
same,expression of Bcl2,[17],down regulating; also recorded: inhibited
same,expression of BclxL,[18],down regulating; also recorded: inhibited
same,pIC50,[1],4.78
same,IC50,"[2]; 20 min preincubation, lecithin substrate, pH 7.6, read-out: mean IC50 against hG-V (converted)",24.4 µM
same,IC50,"[3]; 20 min preincubation, lecithin substrate, pH 7.6, read-out: mean IC50 against hG-X (converted)",54.7 µM
same,mean IC50 against NmPLA2,[4],8.50 ± 2.12 µg/mL
same,pIC50,[5],4.85
same,IC50,"[6]; 15 min preincubation, read-out: mean IC50 against Cathepsin-B (converted)",9.31 µM
same,mean IC50 against Collagenase,[7],10.50 ± 0.71 µg/mL
same,mean IC50 against Elastase,[8],15.50 ± 2.12 µg/mL
same,IC50,"[9]; 15 min preincubation, read-out: mean IC50 against Thrombin (converted)",39.6 µM
same,IC50,"[10]; 15 min preincubation, read-out: mean IC50 against Trypsin (converted)",32.6 µM
same,pIC50,[12],3.78
same,melting point,,229 to 230 °C
same,IC50,[19],~20 µg/mL
same,IC50,[20],~20 µg/mL
